Data on 8 compounds can be found in paper PMC5929572, “Nucleobases and corresponding nucleosides display potent antiviral activities against dengue virus possibly through viral lethal mutagenesis” (PLoS Neglected Tropical Diseases, 2018).

In one data set the test system is DENV-2 viral replicon. Briefly: microbe, parasite or virus in culture. The data set is classed as cell-based. The settings on record: Dengue virus. The method, then: Compounds were evaluated for antiviral properties using BHK cells containing a DENV-2 viral replicon. 1.5 × 10^3 replicon-containing cells per well were plated in white opaque 96-well plates in the absence of antibiotic selection and the next day, compounds dissolved in DMSO were added to triplicate wells in culture medium. The compounds were initially tested at 10 and 50 μM final concentrations and each plate also contained DMSO alone, medium alone, and 6. Three days later, medium was replaced with a 1:1000 dilution of ViVi-Ren Live Cell Substrate (Promega) in DME minus phenol red and 10% FBS. Luminescence was measured with a Molecular Devices M5e plate reader. Mean values of triplicate wells were determined and compared to the mean value for the wells that received DMSO alone. […] The EC50 was determined by comparing luciferase activity for eight serial dilutions of the compound and DMSO treated cells using GraphPad Prism software.

Data set [1] can be described thus: Cell viability assay (MTS) in DENV replicon cells. It is filed as cell-based, baby hamster. The settings on record: hamster, DENV replicon cells (BHK pD2-hRucPac-2ATG30), DENV replicon BHK cells, MTS, 72 h. In general terms: In antiviral work, replicon cells carry a viral genome segment that copies itself.
In data set [2] the test system is DENV replicon cells (BHK pD2-hRucPac-2ATG30). Put plainly: Cell viability assay (MTS) in DENV replicon cells. It is filed as cell-based, baby hamster. The settings on record: for CC50: DENV replicon BHK cells, MTS, 72 h.
[3] abbreviates: DENV2, 72 h, DENV replicon BHK cells, luciferase, 3 days, read-out: EC50.

Like-named read-outs stand apart in the source and are kept apart here.

Regarding `NC(=O)c1ncn([C@@H]2O[C@H](CO)[C@@H](O)[C@H]2O)c1O` [Compound 2b, mizoribine, reference compound], the 50% effective concentration (EC50) (as a rule, the concentration needed to bring the measured effect to its halfway point) in the data set on DENV-2 viral replicon (setting [3]) was determined as 15 µM. Moreover, in data set [1], the CC50 – broadly, the concentration at which the toxic effect on the cells reaches its halfway point – at 72 h came to 33 ± 12 µM.

On to `NC(=O)c1ncn([C@@H]2O[C@H](CO)[C@@H](O)[C@H]2O)n1` [Compound 1b, ribavirin, reference compound], for which the CC50 at 72 h in data set [1] was found to be 20 µM. This lies in the double-digit micromolar range.

Turning to `NC(=O)c1nc[nH]c1O` [Compound 2a, 5-Hydroxy-1H-imidazole-4-carboxamide], the EC50 in the data set with DENV-2 viral replicon (setting [3]) came out at 2.4 µM. In addition, it took 23 ± 4.2 µM to reach half-maximal cytotoxicity in data set [1] (CC50 at 72 h).

Consider `Nc1nc(N)c2[nH]cnc2n1` [Compound 4a, 2,6-diaminopurine], for which, in data set [1], half-maximal cytotoxicity (CC50 at 72 h) was put at 13 ± 2.1 µM.

For the compound `NC(=O)c1nc(F)c[nH]c1=O` [Compound 5a, 6-fluoro-3-hydroxypyrazine-2-carboxamide, reference compound], it took 110 ± 30 µM to reach a half-maximal effect in the data set on DENV-2 viral replicon (DENV2, BHK, 72 h) (EC50). For the same compound, in data set [2], the CC50 was > 665 µM. Also, the half-maximal cytotoxic concentration (CC50) at 72 h in data set [1] is > 1000 µM.

`COc1c(C)c2c(c(O)c1C/C=C(\C)CCC(=O)O)C(=O)OC2` [Compound 6, mycophenolic acid, reference compound] returned an EC50 in the data set with DENV-2 viral replicon (DENV2, BHK, 72 h) of 0.3 ± 0.03 µM. The compound further had a CC50 at 72 h in data set [1] of 1.4 ± 0.4 µM.

As for `NC(=O)c1nc[nH]n1` [Compound 1a, 1,2,4-Triazole-3-carboxamide], in the data set with DENV-2 viral replicon (DENV2, BHK, 72 h), the concentration for a half-maximal effect (EC50) worked out at 4.9 ± 1.6 µM. Besides, the CC50 in data set [2] was > 665 µM. Also, the cytotoxicity entry in data set [2] (at 1000 μM, DENV replicon cells) is recorded as “did not show cytotoxicity”. Also, the CC50 at 72 h in data set [1] is > 1000 µM.

As for `Nc1nc(N)c2ncn([C@@H]3O[C@H](CO)[C@@H](O)[C@H]3O)c2n1` [Compound 4b, 2-Aminoadenosine], the “toxicity, in words” value in data set [2] (DENV replicon cells) is “too toxic”. Moreover, in data set [1], the midpoint of cytotoxicity, the CC50 at 72 h, lay at 31 ± 1.4 µM.
